Measurements from publication PMC9557946, “Intermittent MEK inhibition for the treatment of metastatic uveal melanoma” (Frontiers in Oncology, 2022).
“And” between values parts separate entries of the source, which are not always exact repeats. Identical values can stand only once. Like-named read-outs stand apart in the source and are kept apart here.

What was measured:
[1] = cited from earlier work
[2] = system: metastatic uveal melanoma; conditions: ref [10], cited from earlier work
[3] = in vivo
Description: Non-compartmental analyses were performed on the data for day 1, 2, 15 and 17 using Winnonlin software (Phoenix Winnonlin 8.3.1.5014, Certara L.P., Princeton, NJ). […] Data were summarized per dose level and per occasion. Dose-exposure relationships were explored by plotting dose versus the various parameters. Accumulation was investigated using the AUC assessed at various days.

[4] = Phase Ib trial of intermittent selumetinib: adverse events, DLT and MTD; assay type: in vivo
Description: This was a multi-center, open-label, phase Ib study conducted at Columbia University Irving Medical Center (New York, NY), University of Texas MD Anderson Cancer Center (Houston, TX), and Memorial Sloan Kettering Cancer Center (New York, NY). […] Exploratory objectives included pharmacodynamic (PD) assessment of target inhibition of the MEK pathway.
The MTD was estimated using the time to event continual reassessment method (TITE-CRM) with a target DLT rate of 0.25 ([17]). TITE-CRM was used as it allows use of partial information before a complete follow-up is achieved and allows for a longer toxicity evaluation window beyond the first cycle to account for late onset toxicities. As a result, trials can be conducted in a continuous fashion. […] Based on prior clinical data, the estimated MTD prior to conduct of the trial was DL2.
Descriptive statistics were used to report baseline characteristics of the study population. The observed rate and estimated rate of DLT were reported for each dose level along with the 90% probability interval. The number and percentage of patients with adverse events were summarized taking the highest grade and reported by grade for AEs that were at least possibly related to treatment. AEs with at prevalence of least 10% were reported separately. The overall response rate (ORR) was defined as a confirmed complete response (CR) or partial response (PR) according to RECIST 1.1 criteria ([18]) and reported by dose level. […] PFS was measured from date of enrollment until the date of progression or death, whichever occurred first. OS was defined as the time from the date of registration to the date of death by any cause.
Toxicity was graded using National Cancer Institute Common Terminology Criteria for Adverse Events (CTCAE v. 4.0). For recurrent adverse events (AEs), the highest reported grade per event per patient was assessed. The DLT observation period was 8 weeks from the initiation of treatment.

[5] = related to study treatment, 29 patients, all dose levels

## Cn1cnc2c(F)c(Nc3ccc(Br)cc3Cl)c(C(=O)NOCCO)cc21 [selumetinib]
[1]; continuous dosing schedule
  continuous dose MTD: 75 mg BID
[1]; prior knowledge, no reference given
  mean half-life: 5 to 8 h
[2]; SELPAC, selumetinib 75 mg BID
  median PFS: 3.4 months
[2]; SelPac, 77 patients
  ORR: 4%
  median OS: 10 months
[3]; human, 100 mg
  AUC0-4h: 2903 ± 461 (6) h*ng/mL
  AUC0-8h: 4265 ± 628 (2) h*ng/mL
  CL/F: 20.9 ± 3.7 (2) L/h
  Cmax: 1453 ± 530 (6) ng/mL
  Tmax: 1.7 ± 0.5 (6) h
  t½: 2.4 ± 0.3 (2) h
[3]; human, 125 mg
  AUC0-4h: 4270 ± 1470 (56) h*ng/mL
  AUC0-8h: 6042 ± 2210 (29) h*ng/mL
  CL/F: 18.7 ± 8.1 (26) L/h
  Cmax: 2115 ± 798 (56) ng/mL
  intra-patient coefficient of variation for AUC0-8h: 11.3%
  intra-patient coefficient of variation for Cmax: 25.3%
  t½: 4.3 ± 5.7 (26) h
[3]; human, 150 mg
  AUC0-4h: 6073 ± 1540 (8) h*ng/mL
  AUC0-8h: 6683 ± 729 (4) h*ng/mL
  CL/F: 14.8 ± 7.6 (8) L/h
  Cmax: 3041 ± 1155 (8) ng/mL
  t½: 7.9 ± 9.1 (3) h
[3]
  accumulation: little to no accumulation
[4]; 150 mg BID vs 75 mg BID
  increase of intermittent MTD over continuous dose MTD: 100%
[4]; 29 patients, all dose levels
  patients requiring dose reduction for treatment-related toxicity: 21%
  patients who discontinued therapy due to toxicity: Five patients discontinued therapy due to toxicity
  patients with at least one treatment-related AE of any grade: All patients
  patients with grade 3 or higher treatment-related AE: 17%
[4]; All dose levels, 29 patients
  Observed DLTs: 5
[4]; DL3 150 mg BID, 90% probability interval 16%-44%
  estimated probability of toxicity at the MTD: 29%
[4]; Dose Level 2 (125 mg BID)
  DLT Information: • Grade 3 Hypertension • Grade 3 Abdominal pain
[4]; Dose Level 2 (125 mg BID), 20 patients
  Observed DLTs: 2/20 and 2
[4]; Dose Level 3 (150 mg BID)
  DLT Information: • Grade 3 Abdominal pain • Grade 3 AST elevation
[4]; Dose Level 3 (150 mg BID), 5 patients
  Observed DLTs: 2/5 and 2
[4]; Dose Level 4 (175 mg BID)
  DLT Information: • Grade 3 AST elevation
[4]; Dose Level 4 (175 mg BID), 1 patient
  Observed DLTs: 1/1 and 1
[4]; all dose levels
  most common grade 3 AE: abdominal pain
  treatment discontinuation associated with liver enzyme elevation: 2 n
  treatment discontinuation associated with retinopathy: 2 n
[4]; all from progression of disease
  patients who died within 30 days of treatment discontinuation: 4 patients
[4]; [5]
  Abdominal pain, All Grades: 12 (41%) patients (%)
  Abdominal pain, Grade 1: 5 (17) n(%)
  Abdominal pain, Grade 2: 4 (14) n(%)
  Abdominal pain, Grade 3: 3 (10) n(%)
  Abdominal pain, Grade 4: 0 n(%)
  Anemia, All Grades: 13 (45%) patients (%)
  Anemia, Grade 1: 11 (38) n(%)
  Anemia, Grade 2: 1 (3) n(%)
  Anemia, Grade 3: 0 n(%)
  Anemia, Grade 4: 1 (3) n(%)
  Constipation, All Grades: 10 (34%) patients (%)
  Constipation, Grade 1: 8 (28) n(%)
  Constipation, Grade 2: 2 (7) n(%)
  Constipation, Grade 3: 0 n(%)
  Constipation, Grade 4: 0 n(%)
  Decreased WBC, All Grades: 8 (28%) patients (%)
  Decreased WBC, Grade 1: 5 (17) n(%)
  Decreased WBC, Grade 2: 2 (7) n(%)
  Decreased WBC, Grade 3: 1 (3) n(%)
  Decreased WBC, Grade 4: 0 n(%)
  Diarrhea, All Grades: 16 (55%) patients (%)
  Diarrhea, Grade 1: 14 (48) n(%)
  Diarrhea, Grade 2: 2 (7) n(%)
  Diarrhea, Grade 3: 0 n(%)
  Diarrhea, Grade 4: 0 n(%)
  Fatigue, All Grades: 25 (86%) patients (%)
  Fatigue, Grade 1: 19 (66) n(%)
  Fatigue, Grade 2: 6 (21) n(%)
  Fatigue, Grade 3: 0 n(%)
  Fatigue, Grade 4: 0 n(%)
  Hypertension, All Grades: 14 (48%) patients (%)
  Hypertension, Grade 1: 3 (10) n(%)
  Hypertension, Grade 2: 9 (31) n(%)
  Hypertension, Grade 3: 2 (7) n(%)
  Hypertension, Grade 4: 0 n(%)
  Increased AST/ALT, All Grades: 12 (41%) patients (%)
  Increased AST/ALT, Grade 1: 10 (34) n(%)
  Increased AST/ALT, Grade 2: 0 n(%)
  Increased AST/ALT, Grade 3: 2 (7) n(%)
  Increased AST/ALT, Grade 4: 0 n(%)
  Nausea, All Grades: 17 (59%) patients (%)
  Nausea, Grade 1: 12 (41) n(%)
  Nausea, Grade 2: 5 (17) n(%)
  Nausea, Grade 3: 0 n(%)
  Nausea, Grade 4: 0 n(%)
  Pruritus, Grade 1: 10 (34) n(%)
  Pruritus, Grade 2: 0 n(%)
  Pruritus, Grade 3: 0 n(%)
  Pruritus, Grade 4: 0 n(%)
  Rash acneiform, All Grades: 19 (65%) patients (%)
  Rash acneiform, Grade 1: 14 (48) n(%)
  Rash acneiform, Grade 2: 5 (17) n(%)
  Rash acneiform, Grade 3: 0 n(%)
  Rash acneiform, Grade 4: 0 n(%)
  Retinopathy/Blurred Vision, All Grades: 8 (28%) patients (%)
  Retinopathy/Blurred Vision, Grade 1: 8 (28) n(%)
  Retinopathy/Blurred Vision, Grade 2: 0 n(%)
  Retinopathy/Blurred Vision, Grade 3: 0 n(%)
  Retinopathy/Blurred Vision, Grade 4: 0 n(%)
  Vomiting, All Grades: 8 (28%) patients (%)
  Vomiting, Grade 1: 5 (17) n(%)
  Vomiting, Grade 2: 3 (10) n(%)
  Vomiting, Grade 3: 0 n(%)
  Vomiting, Grade 4: 0 n(%)
